According to EP4732839A1, “USE OF COMPOUND IN TREATMENT OF LIVER DISEASES” (priority 2023, dated 2025):
Values belong to the compound of their own block, whether it stands above or below them.

Assays:
[1] = Liver tissue distribution after single intragastric administration; conditions: for Mean drug concentration (liver) / Mean drug concentration (plasma) / AUC(0-t) at 24 h: 10 mg/kg single intragastric, ICR mice; for AUC(0-t) at 24 h: in vivo, area under curve at 24 h post-dose
Procedure: The specific regimen was as follows: Before administration, the state of the formulation for administration was inspected, and the homogeneity of the formulation was ensured by vortexing, stirring, or shaking. The theoretical dose for each mouse was calculated according to the following formula. The actual dose for each ICR mouse and the collection time for plasma and tissue samples were required to be recorded in detail in corresponding tables. Theoretical administration volume (mL) = ((Dose(mg⋅kg^−1))/(Concentration of test solution (mg⋅((mL))^−1))) × Animal body weight (kg) [formula]
Plasma sample collection: At each designated time point, about 100 µL of blood was collected from the orbit, and the collected whole blood was placed in an EDTA-K2 anticoagulation tube, inverted several times to mix thoroughly, stored on wet ice, and centrifuged (at 1500 g to 1600 g) for 10 min within 30 min to separate the plasma. The resulting plasma sample was stored at -40 °C to -20 °C for biological sample analysis.
The specific procedures for liver tissue collection were as follows: Liver tissues were collected immediately after whole blood collection. The liver tissues were collected, washed with ice-cold normal saline, dehydrated, weighed, and homogenized in 20% methanol-water at a ratio of 1:5 (w/v). The collection time of tissues and the weight of homogenized tissues were required to be recorded in detail in corresponding tables.
The plasma and various tissue homogenates were stored in a refrigerator at -40 °C to -20 °C for sample analysis. After the experiment was completed, the mice were euthanized by carbon dioxide asphyxiation or cervical dislocation. After the analysis was completed, the samples were returned to the biological sample room, and transferred to an environment at -40 °C to -20 °C for storage according to SOP-SM-001.
The corresponding pharmacokinetic parameters of plasma and liver tissues were calculated using a non-compartmental model in Phoenix WinNonlin 8.0 or later versions, and the area under curve AUC0-t (AUC0-t, the area under the concentration-time curve at 24 h post-dose) was calculated. The liver/plasma drug distribution ratio (RL/P) was then calculated.

[2] = system: IFN-α, IP-10, IL-6, and TNF-α; test: Liver safety: cytokine ELISA in liver tissue; format: in vivo, C57BL/6J wild-type female mice; conditions: 1 h, 2 h, 4 h
Procedure: (§1) C57BL/6J wild-type female mice (6 weeks old) were randomly grouped. After administration at different doses, whole blood and liver tissues of the mice were separately collected at 1 h, 2 h, and 4 h for detection of a plurality of parameters to evaluate the effect of the drugs on the liver.
(§2) Liver tissues and blood were collected at 1 h, 2 h, and 4 h after single dosing.
(§3) The supernatant was collected and stored (-20 °C); • (3) IFN-α, IP-10, IL-6, and TNF-α were detected using an ELISA kit. • (C) Remaining liver tissue-HE staining and pathological evaluation. • (D) 1/2 blood (whole blood)-liver function parameter detection: AST (aspartate aminotransferase), ALT (alanine aminotransferase/glutamate pyruvate transaminase), ALP (alkaline phosphatase), ALB (albumin), and GGT (γ-glutamyl transferase). • (E) 1/2 blood-serum preparation-reserve for ELISA.

[3] = system: ISG15, ISG56, Mx1, and Oaslb; test: Liver safety: qPCR of interferon-related genes in liver tissue; format: in vivo, C57BL/6J wild-type female mice; conditions: dose of 3 mpk (pharmacodynamic dose)
Procedure: as §1, §2, §3

[4] = format: in vivo, C57BL/6J wild-type female mice
Procedure: as §1, §2, §3

Hep3B-luc = Hep3B-luc liver orthotopic xenograft mouse model; conditions: Hep3B-luc liver orthotopic tumor model, 3 mg/kg
hERG potassium channel = hERG potassium channel (Homo sapiens, UniProt Q12809); test: hERG whole-cell patch-clamp; format: cell-based
Source text: The rapidly activated potassium channel encoded by human ether-a-go-go-related gene (hERG) is an important ion channel involved in the formation of cardiac action potential phase 3 repolarization. Drug-induced blockade of hERG channels can lead to delayed cardiac repolarization, manifested as QT interval prolongation on the electrocardiogram, known as long QT syndrome. Drug-induced delayed ventricular repolarization may, under certain circumstances, trigger fatal arrhythmias-torsade de pointes-type ventricular tachycardia. In this study, the whole-cell patch-clamp technique (the standard method for hERG safety assessment) was employed to evaluate the inhibitory effects of the small-molecule compounds on the hERG potassium channel and to assess the risk of ventricular repolarization toxicity.

in vivo = test: in vivo
Procedure: C57BL/6 mice, 8 weeks old, female/male, 27, supplier: SPF (Beijing) Biotechnology Co., Ltd.
The body weight of the animals was measured and recorded daily.
All groups were subjected to clinical observations before administration and 1 to 2 h after administration, and additional observations were performed if necessary. Deaths and mortality were checked twice daily. The observations should include, but are not limited to, the following: fur condition, activity, mental status, vomiting, diarrhea, and abnormal secretions around the eyes. All animals should be observed on the day of necropsy, and any abnormal findings should be recorded.
The rectal temperature of all animals was measured and recorded at 0 h before administration and at 2 h, 4 h, 8 h and 24 h after administration.
The experiment was terminated on day 7 after administration. A gross necropsy was performed to examine abdominal and thoracic organs for lesions, and the spleen and liver were collected for weighing.

H22-luc = H22-luc orthotopic model, 3 mpk, IG
Procedure: The cells were placed in an incubator at 37 °C with 5% CO2 and passaged every 1 to 2 days depending on the cell density.
The cell concentration (H22-luc, 2.0E8/mL) was adjusted, and the cells were mixed well with Matrigel at a ratio of 1:1. The mixture was placed on ice for subsequent injection experiments, and was mixed thoroughly by shaking with Vortex before use.
• (1) The mice were weighed before surgery and anesthetized by intraperitoneal injection of avertin at 0.15 mL/10 g body weight. […] The needle was inserted into the liver at a 30-degree angle relative to the liver surface. After the needle was inserted, the needle was made parallel to the tabletop and advanced in parallel for about 3 mm. 10 µL of H22-luc cell suspension was slowly injected, and a rapid whitening (white plaque) or turbid translucent vacuolation over most of the liver lobe in the injection area was observed. • (5) After injection, a cotton swab was used to apply slight pressure at the needle insertion site while the needle was slowly withdrawn. The cotton swab was removed until no bleeding was observed. • (6) The liver lobe was gently pushed back into the abdominal cavity, and the muscle layer and skin were sutured.
The experimental data were analyzed using Graphpad Prism 8. The experimental data were expressed as mean ± SD.

in vitro = conditions: human, microsomes, pH 7.4
Procedure: The metabolic stability of the compounds in in vitro liver microsomes was evaluated. The procedures and steps were as follows: At 37 °C, 1 µM of the compounds was incubated in 1 mg/mL liver microsomes. The reaction system was a 0.1 M potassium phosphate buffer (pH 7.4) containing 3 mmol/L MgCl2 and 1 mmol/L NADPH. At the beginning of the reaction, the small molecules and the liver microsomes were pre-incubated at 37 °C for 10 min, and subsequently a cofactor NADPH was added to initiate the metabolic reaction. The reaction was quenched at 0 min, 5 min, 10 min, 20 min, 30 min, and 60 min using three volumes of ice-cold methanol containing an internal standard (200 nM labetalol). After incubation at room temperature for 10 min, the samples were centrifuged at 4000 rpm at 4 °C for 20 min, and the supernatants were collected, diluted with chromatography-grade purified water in a 1:1 ratio, and then subjected to quantitative analysis. […] After a 6-minute chromatographic separation on a C18 column (50 × 2.1 mm; 2.6 µm) under a gradient mobile phase of 0.1% formic acid in water, the peaks corresponding to specified ionic signals were detected. […] The detailed operation process was as follows: • 1) The compound working solution was added to all 96-well reaction plates (T0, T5, T10, T20, T30, and T60) at 10 µL/well, except the blank wells. • 2) The microsomal solution was added to all the reaction wells (T0, T5, T10, T20, T30, T60, and blank wells) at 80 µL/well. • 3) The plates were pre-incubated at 37 °C for 10 min. • 4) After pre-incubation, NADPH was added to each reaction plate at 10 µL/well to initiate the reaction. • 5) At the set end time point, a 4 °C methanol solution (containing an internal standard: 200 nM labetalol) was added to each reaction plate at 300 µL/well to quench the reaction. • 6) Each plate was sealed and shaken for 10 min. • 7) The mixture was shaken well and centrifuged at 4000 rpm at 4 °C for 20 min. • 8) 300 µL of the supernatant was collected, and HPLC-grade water was added at 300 µL/well. The mixture was well mixed and then subjected to LC-MS analysis.
The metabolic half-life (T1/2) and the metabolic clearance rate (CLint(mic)) (µL/min/mg) were calculated using a first-order kinetic equation.

hepatitis B virus (HBV) = test: Anti-hepatitis B virus activity in HBV-infected primary human hepatocytes; format: cell-based, HBV type B; conditions: HBV-infected PHHs, agonist-treated PBMC supernatant (donor 1) or reference compound
Procedure: The culture supernatant from one donor (donor 1) was selected to stimulate HBV-infected primary hepatocytes (PHHs), and interferon α and nucleoside analog entecavir (ETV) were selected as positive controls. The experimental procedures were as follows (FIG. 14a), and the detailed procedures were as follows: On day -1, cryopreserved PHHs were thawed and adjusted to a density of 6 × 10^5 cells/mL, and the PHHs were seeded into a 48-well plate at 0.22 mL/well.
On day 0, the PHHs were infected with HBV type B at 600 GE/cells.
On day 1, the culture medium was replaced with a fresh one, and reference compounds ETV and Peg-IFN-α2a (Pegasys-Roche) were added to the cells to treat the cells. The reference compounds ETV and Peg-IFN-α2a for the PHHs were each prepared at one concentration, with three replicate wells.
The PBMC supernatants were each prepared at 4 test concentrations, diluted at a ratio of 1:4, and then added to the cells. Three replicate wells were made for each test condition. The culture medium was replaced with a fresh culture medium containing the PBMC supernatants and the reference compounds on days 5, 7, 9, and 11. On day 13, the cell supernatants were collected and the cell viability was detected using CCK-8.
The content of HBV DNA in the supernatants was determined by qPCR according to the kit instructions. HBsAg and HBeAg levels in the supernatants were determined by ELISA.

[5] = system: Peripheral blood mononuclear cells (hPBMCs); test: Cytokine secretion after stimulation of PBMCs; conditions: hPBMCs from 3 donors, 24 h of stimulation
[6] = system: advanced unresectable HCC; conditions: cited from earlier work
[7] = system: advanced hepatocellular carcinoma (aHCC); conditions: first-line aHCC; nivolumab 240 mg intravenous drip once every 2 weeks; sorafenib 400 mg oral twice daily; cited from earlier work
[8] = C57BL/6 mice, single intragastric administration
[9] = ICR, mouse, liver, oral, 10 mg/kg
[10] = ICR, mouse, liver/plasma, oral, 10 mg/kg
[11] = ICR, mouse, plasma, oral, 10 mg/kg

Sequence of hERG potassium channel (Q12809 whole entry): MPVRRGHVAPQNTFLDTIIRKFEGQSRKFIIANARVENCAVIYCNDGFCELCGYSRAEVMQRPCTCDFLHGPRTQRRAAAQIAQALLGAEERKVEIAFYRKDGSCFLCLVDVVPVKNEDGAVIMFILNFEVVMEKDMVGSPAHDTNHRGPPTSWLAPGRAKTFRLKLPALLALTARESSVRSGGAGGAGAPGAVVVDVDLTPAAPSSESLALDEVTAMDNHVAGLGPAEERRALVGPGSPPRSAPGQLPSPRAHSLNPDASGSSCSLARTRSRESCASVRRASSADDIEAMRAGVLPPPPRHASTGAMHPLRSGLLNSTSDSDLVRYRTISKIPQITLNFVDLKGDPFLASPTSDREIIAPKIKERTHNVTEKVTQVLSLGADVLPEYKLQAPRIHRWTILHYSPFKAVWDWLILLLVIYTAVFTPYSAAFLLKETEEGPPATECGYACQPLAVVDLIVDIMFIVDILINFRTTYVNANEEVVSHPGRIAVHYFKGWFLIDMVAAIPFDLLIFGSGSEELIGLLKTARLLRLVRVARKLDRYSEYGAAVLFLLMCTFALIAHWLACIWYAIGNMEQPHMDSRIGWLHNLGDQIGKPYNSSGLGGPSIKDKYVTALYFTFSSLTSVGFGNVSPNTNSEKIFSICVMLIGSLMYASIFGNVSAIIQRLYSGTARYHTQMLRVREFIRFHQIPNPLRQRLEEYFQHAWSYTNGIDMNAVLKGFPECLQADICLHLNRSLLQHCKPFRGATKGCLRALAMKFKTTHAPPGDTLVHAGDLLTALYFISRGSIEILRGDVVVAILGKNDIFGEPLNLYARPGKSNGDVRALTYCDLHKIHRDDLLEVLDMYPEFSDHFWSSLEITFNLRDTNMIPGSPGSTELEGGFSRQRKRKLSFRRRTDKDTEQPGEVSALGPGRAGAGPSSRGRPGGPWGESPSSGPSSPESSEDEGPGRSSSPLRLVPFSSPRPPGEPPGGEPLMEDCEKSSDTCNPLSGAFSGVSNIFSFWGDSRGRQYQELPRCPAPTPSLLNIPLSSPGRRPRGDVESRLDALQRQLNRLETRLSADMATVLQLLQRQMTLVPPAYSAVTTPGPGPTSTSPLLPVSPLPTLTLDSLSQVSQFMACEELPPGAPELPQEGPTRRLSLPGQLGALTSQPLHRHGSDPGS

Structure (SMILES): COCCNc1nc(N)nc2ccc(Cc3ccc(CN(C)C)cc3)nc12 [Compound I]
Mean drug concentration (liver) ([1]; 0.25h): 3416 ng/g | Mean drug concentration (plasma) ([1]; 0.25h): 45.4 ng/mL | Mean drug concentration (liver) ([1]; 1 h): 2340 ng/g | Mean drug concentration (plasma) ([1]; 1 h): 25.9 ng/mL | Mean drug concentration (liver) ([1]; 4h): 263 ng/g | Mean drug concentration (plasma) ([1]; 4h): 10.7 ng/mL | Mean drug concentration (liver) ([1]; 24h): 35.6 ng/g | Mean drug concentration (plasma) ([1]; 24h): 1.49 ng/mL | AUC(0-t) at 24 h ([1]; mouse, po, 10 mg/kg, AUC0-t (liver)): 9480 ng·h/mL | AUC(0-t) at 24 h ([1]; mouse, po, 10 mg/kg, AUC0-t (plasma)): 206 ng·h/mL | expression level of IP-10 ([2]; 3 mpk i.g. single dose): increased first, then decreased, and then increased from 1 h to 4 h | expression levels of IL-6, TNF-α, and IFN-α ([2]; 3 mpk i.g. single dose): decreased from 1 h to 4 h | expression level of IP-10 ([2]; 10 mpk i.g. single dose): peaked at 2 h and decreased at 4 h | expression levels of IL-6, TNF-α, and IFN-α ([2]; 10 mpk i.g. single dose): increased from 1 h to 4 h | expression levels of IL-6, TNF-α, IFN-α, and IP-10 ([2]; 20 mpk i.g. single dose): peaked at 2 h, and decreased at 4 h | mRNA expression level of interferon-related genes [3]: significantly induced an increase | ALB level ([4]; 10 mpk group at 2 h): significantly lower than that of the control group | AST levels ([4]; all administration groups, no statistically significant differences): exceeded the normal reference range | ALP levels ([4]; all dose groups): within the normal reference value range | GGT levels ([4]; all dose groups): within the normal reference value range | ALT elevation by clinical adverse reaction grading ([4]; single administration, Grade 1 AE = ALT exceeding three times the normal value): did not result in ALT elevation to grade 1 AE | ALT ([4]; whole blood, 3/10/20 mpk i.g. single dose, 1 h, 2 h, 4 h): increased in all groups | maximum body weight loss (Hep3B-luc): 8.0% | IC50 (hERG potassium channel): 17.2 µM | Gross necropsy (in vivo; 10 mg/kg, group 1, male animal No. 46): enlarged spleen | Cage-side observation (in vivo; 10 mg/kg, group 1, male animal No. 46, day 2): mild hunched posture | Gross necropsy (in vivo; 40 mg/kg, group 4, female animal No. 2): enlarged spleen | rectal temperature (in vivo; 2 h after treatment, significant difference vs vehicle group, returned to normal 4 h, 8 h and 24 h): decreased | Adverse reactions at maximum tolerated dose/probability (in vivo; [8]): No | Weight loss at maximum tolerated dose: whether recovered (in vivo; [8]): Yes | Weight loss rate at maximum tolerated dose (in vivo; [8]): 12.5% | With or without mouse death (in vivo; [8]): No | spleen weight (in vivo; female animals, 30 mg/kg, compared with vehicle group): significantly increased | body weight (in vivo; male and female animals, 10-40 mg/kg single administration, began to recover from day 3 to day 7): decreased after the single administration | MTD at 168 h (in vivo; mouse, in vivo, po): 40 mg/kg | mouse death (H22-luc; QW × 3): One mouse in the compound I group died from ascites on day 20 | TGI (H22-luc; QW × 3, BLI 21 days post-dose, P < 0.0001): 87.0% | half-life at 1 µM (in vitro): 1.7 h | microsomal CLint at 1 µM (in vitro): 13.7 µL/min/mg

Structure (SMILES): C=C1[C@H](CO)[C@@H](O)C[C@@H]1n1cnc2c(=O)[nH]c(N)nc21 [ETV, entecavir, reference compound]
levels of surface antigens HBeAg and HBsAg (hepatitis B virus (HBV); supernatant ELISA day 13): did not reduce | level of HBV DNA (hepatitis B virus (HBV); supernatant qPCR day 13): significantly inhibited

Mean drug concentration (liver) ([1]; 24h): BLOQ | Mean drug concentration (plasma) ([1]; 24h): BLOQ | concentration at 0.25 h [1, 9]: 907 ng/g | concentration at 1 h [1, 9]: 224 ng/g | concentration at 4 h [1, 9]: 207 ng/g | AUC(0-t) ([1]; ICR, mouse, liver, po, 10 mg/kg): 1180 ng·h/mL | Kp [1, 10]: 3.5 | Kp at 0.25 h [1, 10]: 2.49 | Kp at 1 h [1, 10]: 3.16 | Kp at 4 h [1, 10]: 15 | Kp ([1]; ICR, mouse, liver/plasma, po, 10 mg/kg): 3.5 | concentration at 0.25 h [1, 11]: 364 ng/mL | concentration at 1 h [1, 11]: 70.9 ng/mL | concentration at 4 h [1, 11]: 13.8 ng/mL | AUC(0-t) ([1]; ICR, mouse, plasma, po, 10 mg/kg): 336 ng·h/mL
Structure (SMILES): CCCC[C@](C)(CO)Nc1nc(N)nc2cc(F)cnc12 [GS-9688, reference compound]
IFN-α stimulating activity [5]: essentially failed to activate IFN-α

Structure (SMILES): CNC(=O)c1cc(Oc2ccc(NC(=O)Nc3ccc(Cl)c(C(F)(F)F)c3)cc2)ccn1 [sorafenib]
median survival ([6]; patients with advanced unresectable HCC (N = 602), placebo 7.9 months): 10.7 months | progression-free survival ([6]; placebo 84 days): 167 days | ORR [7]: 7% | mOS [7]: 14.7 months
